From patent US9539260B2, “Dihydro-benzo-oxazine and dihydro-pyrido-oxazine derivatives” (Novartis AG, priority 2012, dated 2017)

How the values were obtained:
PI3K delta = PI3K delta (Homo sapiens (Human), UniProt O00329); assay: Enzymatic PI3K delta isoform inhibition (lipid kinase activity, Kinase-Glo luminescence); format: biochemical; conditions: Enzymatic assay
Method in brief: (§1)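 ATP-depletion format: 10 nM PI3K with 5 μg/mL phosphatidylinositol and 2 μM ATP, run to ~50% ATP consumption, then Kinase-Glo added and remaining ATP read by luminescence after 5 min. IC50 from 4-parameter logistic fit, typically over 8 concentrations 10–0.003 μM.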

PI3K alpha = PI3K alpha (Homo sapiens (Human), UniProt P42336); assay: Enzymatic PI3K alpha isoform inhibition (lipid kinase activity, Kinase-Glo luminescence); format: biochemical; conditions: Enzymatic assay
Method in brief: as §1

PI3K alpha, sequence (P42336 other isoform, or with tags, fused parts or gaps): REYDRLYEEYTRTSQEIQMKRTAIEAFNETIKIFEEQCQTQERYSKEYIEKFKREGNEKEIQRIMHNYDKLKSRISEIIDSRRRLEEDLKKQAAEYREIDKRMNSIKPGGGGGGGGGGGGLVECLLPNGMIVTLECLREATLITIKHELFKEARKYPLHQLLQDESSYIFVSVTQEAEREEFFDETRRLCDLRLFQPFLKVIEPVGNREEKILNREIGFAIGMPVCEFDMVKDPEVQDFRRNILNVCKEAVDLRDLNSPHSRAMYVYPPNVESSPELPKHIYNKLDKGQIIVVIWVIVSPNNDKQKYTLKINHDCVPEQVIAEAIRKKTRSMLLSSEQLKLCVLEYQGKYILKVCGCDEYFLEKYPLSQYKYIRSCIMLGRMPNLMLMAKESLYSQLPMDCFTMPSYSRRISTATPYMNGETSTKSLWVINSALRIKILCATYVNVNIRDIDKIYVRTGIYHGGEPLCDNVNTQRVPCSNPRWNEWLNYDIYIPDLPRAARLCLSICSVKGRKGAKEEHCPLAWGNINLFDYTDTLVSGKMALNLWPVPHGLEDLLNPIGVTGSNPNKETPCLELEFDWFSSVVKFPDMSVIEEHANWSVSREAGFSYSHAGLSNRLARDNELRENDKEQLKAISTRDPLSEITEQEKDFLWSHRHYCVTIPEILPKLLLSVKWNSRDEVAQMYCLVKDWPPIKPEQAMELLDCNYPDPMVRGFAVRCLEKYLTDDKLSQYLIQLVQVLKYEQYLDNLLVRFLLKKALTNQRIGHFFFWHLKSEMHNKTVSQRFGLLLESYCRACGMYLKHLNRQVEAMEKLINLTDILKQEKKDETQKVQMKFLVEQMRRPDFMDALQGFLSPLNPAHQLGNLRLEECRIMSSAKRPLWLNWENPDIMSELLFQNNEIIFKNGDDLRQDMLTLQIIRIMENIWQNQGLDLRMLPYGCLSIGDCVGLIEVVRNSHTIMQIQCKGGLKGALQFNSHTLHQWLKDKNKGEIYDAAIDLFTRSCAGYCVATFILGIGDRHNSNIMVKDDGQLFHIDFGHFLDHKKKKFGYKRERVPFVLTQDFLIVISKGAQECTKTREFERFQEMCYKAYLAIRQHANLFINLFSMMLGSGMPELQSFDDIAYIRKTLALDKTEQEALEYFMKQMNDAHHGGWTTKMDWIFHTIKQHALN
PI3K delta, sequence (O00329 other isoform, or with tags, fused parts or gaps linker GGGGGG): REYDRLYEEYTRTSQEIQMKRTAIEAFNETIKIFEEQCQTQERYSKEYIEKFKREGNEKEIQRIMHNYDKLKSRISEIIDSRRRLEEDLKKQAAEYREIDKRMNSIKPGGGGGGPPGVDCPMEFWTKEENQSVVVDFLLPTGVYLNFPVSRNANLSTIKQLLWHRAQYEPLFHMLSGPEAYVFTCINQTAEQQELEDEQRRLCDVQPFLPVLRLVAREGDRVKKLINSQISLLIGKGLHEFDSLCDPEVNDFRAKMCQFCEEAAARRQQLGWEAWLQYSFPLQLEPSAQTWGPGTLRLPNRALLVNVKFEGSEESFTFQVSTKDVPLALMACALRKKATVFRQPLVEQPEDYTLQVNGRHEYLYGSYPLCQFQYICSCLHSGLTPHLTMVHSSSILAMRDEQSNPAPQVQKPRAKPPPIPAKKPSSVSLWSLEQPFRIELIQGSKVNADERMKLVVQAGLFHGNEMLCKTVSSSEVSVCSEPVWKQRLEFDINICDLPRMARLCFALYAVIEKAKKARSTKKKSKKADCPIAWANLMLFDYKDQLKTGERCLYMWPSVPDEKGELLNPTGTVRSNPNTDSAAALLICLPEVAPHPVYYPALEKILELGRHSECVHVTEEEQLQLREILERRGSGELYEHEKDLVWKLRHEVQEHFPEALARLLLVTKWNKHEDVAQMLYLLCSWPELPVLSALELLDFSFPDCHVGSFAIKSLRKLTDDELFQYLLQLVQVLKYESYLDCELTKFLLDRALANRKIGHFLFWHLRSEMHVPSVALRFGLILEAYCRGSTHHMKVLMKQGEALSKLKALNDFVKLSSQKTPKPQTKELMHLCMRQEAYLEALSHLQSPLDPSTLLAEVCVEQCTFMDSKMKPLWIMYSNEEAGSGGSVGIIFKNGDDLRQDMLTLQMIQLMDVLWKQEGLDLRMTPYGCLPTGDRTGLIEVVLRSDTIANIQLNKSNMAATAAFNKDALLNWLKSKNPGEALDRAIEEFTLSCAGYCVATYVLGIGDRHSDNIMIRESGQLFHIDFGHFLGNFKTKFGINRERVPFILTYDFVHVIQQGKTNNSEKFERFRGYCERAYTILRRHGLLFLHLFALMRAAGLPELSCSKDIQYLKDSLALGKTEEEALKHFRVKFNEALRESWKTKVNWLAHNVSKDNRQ

Compound | IC50 (PI3K delta) [nM] | IC50 (PI3K alpha) [nM]
Cc1cc(N2CCOc3ccc(O[C@H]4CCN(C(=O)C5CCOC5)C4)cc32)cnc1S(C)(=O)=O (stereo partly drawn) [Example B31, {(S)-3-[4-(6-Methanesulfonyl-5-methyl-pyridin-3-yl)-3,4-dihydro-2H-benzo[1,4]oxazin-6-yloxy]-pyrrolidin-1-yl}-(tetrahydro-furan-3-yl)-methanone] | 3 | 977
N#Cc1cncc(N2CCOc3ccc(O[C@H]4CCN(C(=O)C5CCOCC5)C4)cc32)c1 [Example A7, 5-{6-[(S)-1-(Tetrahydro-pyran-4-carbonyl)-pyrrolidin-3-yloxy]-2,3-dihydro-benzo[1,4]oxazin-4-yl}-nicotinonitrile] | 31 | 1920
COc1ncc(N2CCOc3ccc(O[C@H]4CCN(C(=O)C5CCOC5)C4)cc32)cc1C (stereo partly drawn) [Example B15, {(S)-3-[4-(6-Methoxy-5-methyl-pyridin-3-yl)-3,4-dihydro-2H-benzo[1,4]oxazin-6-yloxy]-pyrrolidin-1-yl}-(tetrahydro-furan-3-yl)-methanone] | 31 | 2650
Cc1cc(N2CCOc3ccc(O[C@H]4CCN(c5ncccn5)C4)cc32)cnc1S(C)(=O)=O [N, 4-(6-Methanesulfonyl-5-methyl-pyridin-3-yl)-6-((S)-1-pyrimidin-2-yl-pyrrolidin-3-yloxy)-3,4-dihydro-2H-benzo[1,4]oxazine] | 12 | 838
COc1ncc(N2CCOc3ccc(O[C@H]4CCN(C(=O)CS(C)(=O)=O)C4)cc32)cc1F [Example B111, 1-{(S)-3-[4-(5-Fluoro-6-methoxy-pyridin-3-yl)-3,4-dihydro-2H-benzo[1,4]oxazin-6-yloxy]-pyrrolidin-1-yl}-2-methanesulfonyl-ethanone] | 60 | 685
Cc1cc(N2CCOc3ccc(O[C@H]4CCN(C(=O)C5CCCCC5)C4)cc32)cnc1S(C)(=O)=O [Example B49, Cyclohexyl-{(S)-3-[4-(6-methanesulfonyl-5-methyl-pyridin-3-yl)-3,4-dihydro-2H-benzo[1,4]oxazin-6-yloxy]-pyrrolidin-1-yl}-methanone] | 7 | 450
COc1ncc(N2CCOc3ccc(O[C@H]4CCN(C(=O)C5COCCO5)C4)cc32)cc1C#N (stereo partly drawn) [Example C25, 5-{6-[(S)-1-([1,4]Dioxane-2-carbonyl)-pyrrolidin-3-yloxy]-2,3-dihydro-benzo[1,4]oxazin-4-yl}-2-methoxy-nicotinonitrile] | 12.5 | 474
COc1ncc(N2CCOc3ccc(O[C@H]4CCN(C(=O)Cc5ccncc5)C4)cc32)cc1C#N [S, 2-Methoxy-5-{6-[(S)-1-(2-pyridin-4-yl-acetyl)-pyrrolidin-3-yloxy]-2,3-dihydro-benzo[1,4]oxazin-4-yl}-nicotinonitrile] | 36 | 612
COc1ncc(N2CCOc3ccc(O[C@H]4CCN(C(=O)C5CCC(=O)N5)C4)cc32)cc1C#N (stereo partly drawn) [Example C23, 2-Methoxy-5-{6-[(S)-1-(5-oxo-pyrrolidine-2-carbonyl)-pyrrolidin-3-yloxy]-2,3-dihydro-benzo[1,4]oxazin-4-yl}-nicotinonitrile] | 32 | 658
COc1ncc(N2CCOc3ccc(O[C@H]4CCN(C(=O)C5COCCO5)C4)cc32)cc1F (single isomer, unassigned) [Example H16] | 16 | 871
COc1ncc(N2CCOc3ccc(O[C@H]4CCN(C(=O)c5cncn5C)C4)cc32)cc1C#N [Example D31, 2-Methoxy-5-{6-[(S)-1-(3-methyl-3H-imidazole-4-carbonyl)-pyrrolidin-3-yloxy]-2,3-dihydro-benzo[1,4]oxazin-4-yl}-nicotinonitrile] | 9 | 135
COc1ncc(N2CCOc3ccc(O[C@H]4CCN(C(=O)c5cnn(C)c5)C4)cc32)cc1C#N [Example D27, 2-Methoxy-5-{6-[(S)-1-(1-methyl-1H-pyrazole-4-carbonyl)-pyrrolidin-3-yloxy]-2,3-dihydro-benzo[1,4]oxazin-4-yl}-nicotinonitrile] | 64 | 1570
COc1ncc(N2CCOc3ccc(O[C@H]4CCN(C(=O)C5CCOC5)C4)cc32)cc1F (stereo partly drawn) [Example B98, {(S)-3-[4-(5-Fluoro-6-methoxy-pyridin-3-yl)-3,4-dihydro-2H-benzo[1,4]oxazin-6-yloxy]-pyrrolidin-1-yl}-(tetrahydro-furan-3-yl)-methanone] | 13 | 910
O=C(C1CCOCC1)N1CC[C@H](Oc2ccc3c(c2)N(c2ccc(C(F)(F)F)nc2)CCO3)C1 [Example A42, (Tetrahydro-pyran-4-yl)-{(S)-3-[4-(6-trifluoromethyl-pyridin-3-yl)-3,4-dihydro-2H-benzo[1,4]oxazin-6-yloxy]-pyrrolidin-1-yl}-methanone] | 30 | 1140
COc1ncc(N2CCOc3ccc(O[C@H]4CCN(C(=O)C5CCS(=O)(=O)CC5)C4)cc32)cc1C#N [Example D16, 5-{6-[(S)-1-(1,1-Dioxo-hexahydro-1lambda*6*-thiopyran-4-carbonyl)-pyrrolidin-3-yloxy]-2,3-dihydro-benzo[1,4]oxazin-4-yl}-2-methoxy-nicotinonitrile] | 7 | 503
COc1ncc(N2CCOc3ccc(O[C@H]4CCN(C(=O)c5cocn5)C4)cc32)cc1F [Example B100, {(S)-3-[4-(5-Fluoro-6-methoxy-pyridin-3-yl)-3,4-dihydro-2H-benzo[1,4]oxazin-6-yloxy]-pyrrolidin-1-yl}-oxazol-4-yl-methanone] | 14 | 567
Cn1cnc(C(=O)N2CC[C@H](Oc3ccc4c(c3)N(c3cnc(S(C)(=O)=O)c(C(F)F)c3)CCO4)C2)c1 [Example B74] | 9 | 54
COc1ncc(N2CCOc3ccc(O[C@H]4CCN(C(=O)c5ccc(=O)n(C)c5)C4)cc32)cc1C [Example B95, 5-{(S)-3-[4-(6-Methoxy-5-methyl-pyridin-3-yl)-3,4-dihydro-2H-benzo[1,4]oxazin-6-yloxy]-pyrrolidine-1-carbonyl}-1-methyl-1H-pyridin-2-one] | 9 | 438
Cc1cc(N2CCOc3ccc(O[C@H]4CCN(C(=O)C5CCS(=O)(=O)CC5)C4)cc32)cnc1OC(F)F [Example B73, {(S)-3-[4-(6-Difluoromethoxy-5-methyl-pyridin-3-yl)-3,4-dihydro-2H-benzo[1,4]oxazin-6-yloxy]-pyrrolidin-1-yl}-(1,1-dioxo-hexahydro-6-thiopyran-4-yl)-methanone] | 30 | 1770
COc1ncc(N2CCOc3ccc(O[C@H]4CCN(C(=O)C5CCS(=O)(=O)C5)C4)cc32)cc1C (single isomer, unassigned) [Example B28, (1,1-Dioxo-tetrahydro-1lambda*6*-thiophen-3-yl)-{(S)-3-[4-(6-methoxy-5-methyl-pyridin-3-yl)-3,4-dihydro-2H-benzo[1,4]oxazin-6-yloxy]-pyrrolidin-1-yl}-methanone] | 12 | 788
COc1ncc(N2CCOc3ccc(O[C@H]4CCN(C(=O)c5ccn(C)n5)C4)cc32)cc1C [Example B21, {(S)-3-[4-(6-Methoxy-5-methyl-pyridin-3-yl)-3,4-dihydro-2H-benzo[1,4]oxazin-6-yloxy]-pyrrolidin-1-yl}-(1-methyl-1H-pyrazol-3-yl)-methanone] | 13 | 666
COc1ncc(N2CCOc3ccc(O[C@H]4CCN(C(=O)c5cncs5)C4)cc32)cc1C#N [Example C14, 2-Methoxy-5-{6-[(S)-1-(thiazole-5-carbonyl)-pyrrolidin-3-yloxy]-2,3-dihydro-benzo[1,4]oxazin-4-yl}-nicotinonitrile] | 5 | 250
CCC(=O)N1CC[C@H](Oc2ccc3c(c2)N(c2cnc(OC)c(S(=O)(=O)N4CCN(C)CC4)c2)CCO3)C1 [Example A18, 1-((S)-3-{4-[6-Methoxy-5-(4-methyl-piperazine-1-sulfonyl)-pyridin-3-yl]-3,4-dihydro-2H-benzo[1,4]oxazin-6-yloxy}-pyrrolidin-1-yl)-propan-1-one] | 11 | 895
COCCC(=O)N1CC[C@H](Oc2ccc3c(c2)N(c2cnc(S(C)(=O)=O)c(C)c2)CCO3)C1 [Example B37, 1-{(S)-3-[4-(6-Methanesulfonyl-5-methyl-pyridin-3-yl)-3,4-dihydro-2H-benzo[1,4]oxazin-6-yloxy]-pyrrolidin-1-yl}-3-methoxy-propan-1-one] | 103 | 1100
COc1ncc(N2CCOc3ccc(O[C@H]4CCN(C(=O)C5CCS(=O)(=O)C5)C4)cc32)cc1Cl (single isomer, unassigned) [Example H14] | 5 | 103
Cc1cc(N2CCOc3ccc(O[C@H]4CCN(C(=O)C5CCCOC5)C4)cc32)cnc1S(C)(=O)=O (stereo partly drawn) [Example B42, {(S)-3-[4-(6-Methanesulfonyl-5-methyl-pyridin-3-yl)-3,4-dihydro-2H-benzo[1,4]oxazin-6-yloxy]-pyrrolidin-1-yl}-(tetrahydro-pyran-3-yl)-methanone] | 33 | 502
Cc1cc(N2CCOc3ccc(O[C@H]4CCN(C(=O)C5CCS(=O)(=O)C5)C4)cc32)cnc1S(C)(=O)=O (stereo partly drawn) [Example B35, (1,1-Dioxo-tetrahydro-1lambda*6*-thiophen-3-yl)-{(S)-3-[4-(6-methanesulfonyl-5-methyl-pyridin-3-yl)-3,4-dihydro-2H-benzo[1,4]oxazin-6-yloxy]-pyrrolidin-1-yl}-methanone] | 27 | 1390
COc1ncc(N2CCOc3ccc(O[C@H]4CCN(C(=O)[C@@H]5CCN(C(C)=O)C5)C4)cc32)cc1C#N [K, 5-{6-[(S)-1-((R)-1-Acetyl-pyrrolidine-3-carbonyl)-pyrrolidin-3-yloxy]-2,3-dihydro-benzo[1,4]oxazin-4-yl}-2-methoxy-nicotinonitrile] | < 3 | 393
COc1ncc(N2CCOc3ccc(O[C@H]4CCN(C(=O)C5CCS(=O)(=O)CC5)C4)c(F)c32)cc1C(F)F [Example I2] | 5 | 308
